Laboratory results taken from PMC9268013, “Design, Synthesis, and Biological Evaluation of N14-Amino Acid-Substituted Tetrandrine Derivatives as Potential Antitumor Agents against Human Colorectal Cancer” (Molecules, 2022).
Where “and” joins values, the source holds several entries; their conditions need not be identical. Equal values may be shown once.

Key:
[1] = system: human liver cancer cells (HepG2); assay: MTT antiproliferative assay, HepG2; assay type: cell-based
Procedure: (§1) Human lung cancer cell (A549,), human umbilical vein endothelial cells (HUVECs,), human colon cancer cell lines (HCT-15), human breast cancer cells (MCF-7), human liver cancer cells (HepG2), human pancreatic cancer cells (BxPC-3), and human hepatic cell line (L-02) were obtained from the Sichuan University. A549, HUVECs, and L-02 were cultured in DMEM medium (high glucose, HyClone, GE Healthcare, Sydney, Australia). Human colon cancer cell lines HCT-15, human pancreatic cancer cells […] BxPC-3 were cultured in RPMI-1640. Human breast cancer cells MCF-7 and human liver cancer cells HepG2 were cultured in MEM medium. All the mediums, including 10% fetal bovine serum (FBS, HyClone, GE Healthcare, Sydney, Australia) and 1% ampicillin/streptomycin, were used to culture the above cells at 37 °C in a humidified atmosphere (5% CO2 and 95% air).
(§2) The antiproliferative activity of the title compounds was determined using the MTT (3-(4,5-dimethylthiazol-2-yl)-2,5-diphenyltetrazolium bromide, Sigma-Aldrich, Saint Louis, MO, USA) assay on different cells. Cells lines were seeded into 96-well plates at a density of 2000 to 6000 cells/well. DMSO was used to dissolve the test compounds, and TET was used as a positive control. After 24 h, the test compounds were added at different concentrations (0.625, 1.25, 2.5, 5, 10, and 20 μM) and incubated at 37 °C for 72 h. MTT was added to each well at a final concentration of 0.5 mg/mL and incubated at 37 °C for 4 h. Then, 150 μL of DMSO was added to each well to dissolve the formazan crystals. The absorbance was measured at 570 nm by a microplate reader (ELX800UV, Bio-Tek, Windoski, VT, USA). All measurements were repeated at least three times under the same conditions. Graphpad Prism 8.0 was used to calculate the IC50 values.

[2] = system: microtubule-associated protein 1 light chain 3 (LC3); assay: Western blot, LC3-II/LC3-I in HCT-15 cells; assay type: cell-based, human; settings: HCT-15, 0.625, 1.25, 2.5, and 5 μM, p < 0.05
Procedure: The protein levels in HCT-15 cells were evaluated via Western blot analysis. The cells were cultured in dishes (10^7 cells per dish) and incubated overnight at 37 °C, 0.625, 1.25, 2.5, and 5 μM of 16 was added in triplicate after 24 h of incubation. Then, the cells were harvested and lysed in Laemmli buffer (glycerol, 1M TRIS pH 6.8, 1% SDS, MQ H2O and 20% β-mercaptoethanol). The samples were boiled for 5 min at 95 °C, and the protein content was determined using a BCA kit. Equal amounts of 30 μg of sample were placed on a Tris/HCl gel and separated by SDS-PAGE electrophoresis. Then, the samples were transferred to a PVDF membrane (Milibo, Co., Ltd., Billyka, MA, USA) and blocked with 5% skimmed milk powder for 2 h. Diluted primary antibodies Bcl-2 (1:3000), Bax (1:10,000), caspase-3 (l:2000), p62 (1:1000), Beclin1 (1:1000), LC3 (1:2000), and β-actin (1:1000) were incubated overnight at 4 °C, followed by a horseradish peroxidase-conjugated goat anti-rabbit IgG secondary antibody (ProteinTech, China) for 2 h at room temperature. Then, immunoreactivity was developed with diaminobenzidine solution, and scanned and recorded by a gel imaging system (G:BOX Chemi XL1.4, Frederick, MD, USA).

HUVECs [3] = assay: Wound healing (migration) assay, HUVEC; assay type: cell-based, human; settings: 10 μM, 24 h, control 85%
Procedure: HCT-15 cells or HUVECs were seeded in six-well culture plates and allowed to grow to 80–90% confluence. Subsequently, a cell-free line was manually created by scratching the confluent cell monolayers with a 200 μL sterile pipette tip, and the detached cells were washed with PBS. The cells were then incubated with 10% FBS and different concentrations of 16 (0.625, 1.25, 2.5, 5, and 10 μM). Then, 24 h later, images of the same location were obtained using a microscope (Nikon ECLIPSE TE2000-U, Tokyo, Japan). Each experiment was carried out at least three times.

[4] = Aqueous solubility determination by HPLC; assay type: physicochemical; settings: neutral water, vs TET
Procedure: Briefly, each tested compound (10 mg) was dissolved in 10 mL of CH3OH, and the standard solution (0.5 mL) was used to determine the wavelength of maximum absorbance by HPLC. The solution was diluted as necessary, and the solubility was determined by linear regression with R^2 > 0.999. Each tested compound (5 mg) was ultrasound dissolved in 3 mL of pure water for 1 h at room temperature, and the mixture was then […] at 3000 rpm for 15 min. The saturated supernatants were determined by HPLC at the wavelength of the maximum absorption, and the absorbances were obtained. The solubility was calculated according to the standard curve.

HUVECs [5] = assay: Tube formation assay on Matrigel; assay type: cell-based, human; settings: HUVEC on Matrigel, 5 μM, 8 h
Procedure: Briefly, a 96-well plate was pre-coated with 50 μL Matrigel per well and incubated at 37 °C for 30 min. Then, 100 μL of HUVECs suspension (2 × 10^4) were added to each well. The cells were cultured with 1.25, 2.5, and 5 μM of 16 for 8 h. Subsequently, the tube formation was observed, randomly selected, and recorded by an inverted microscope.

[6] = system: human colon cancer cells (HCT-15); assay: MTT antiproliferative assay, HCT-15; assay type: cell-based
Procedure: as §1, §2

[7] = system: human normal hepatocyte cells (L-02); assay: MTT toxicity assay, normal hepatocytes L-02; assay type: cell-based; settings: 72 h, normal hepatocyte L-02 (toxicity), read-out: Antiproliferative Activity (IC50/μM) L-02
Procedure: as §1, §2

HCT-15 cells = assay: Colony formation assay; assay type: cell-based, human; settings: HCT-15, 0.625 μM, 10 d
Procedure: HCT-15 cells were diluted in 2 mL of culture medium and plated in six-well plates at 37 °C in 5% CO2. After an overnight incubation, compound 16 (0.625, 1.25, 2.5, 5, and 10 μM) was added, and the cells were cultured for 10 d. Afterwards, the medium was replaced. The cells were washed by cold PBS and fixed with 4% paraformaldehyde. Finally, the cell colonies were stained with a 1% crystal violet solution for 20 min. The plates were recorded, and the colonies were counted digitally using ImageJ software with customized macros.

[8] = system: human umbilical vein endothelial cells (HUVEC); assay: MTT antiproliferative assay, HUVEC; assay type: cell-based; settings: 72 h
Procedure: as §1, §2

- IC50 ([1]; 72 h): 1.05 ± 0.03 µM
- IC50 ([1]; Homo sapiens, HepG2, 72 h): < 1.5 µM
- Increase of aqueous solubility compared to TET [4]: > 5 fold and 5 fold
- IC50 ([6]; Homo sapiens, MTT, 72 h, HCT-15): 0.57 ± 0.03 µM
SMILES: COc1cc(NC(=O)[C@@H]2CCCN2)c2cc1Oc1ccc(cc1)C[C@H]1c3cc(c(OC)cc3CCN1C)Oc1c(OC)c(OC)cc3c1[C@H](C2)N(C)CC3 [Compound 16, 14-N-(L-proline)-tetrandrine]
- Ratio of LC3-II to LC3-I [2]: increased
- Migration rate (HUVECs [3]): 10.0%
- Tube formation (HUVECs [5]): almost no tube structure
- Improvement of antiproliferative activity compared with TET ([6]; HCT-15 cells, vs TET (IC50 = 6.12 μM)): higher than 10 fold
- IC50 [7]: > 20 µM
- Colony formation (HCT-15 cells): very few colonies
- IC50 [8]: 1.48 ± 0.01 µM
